pEC50, pKi: −log10 of the molar value.
Experiments:
BRD4 (BDII_E352-M457) = target: T1, BRD4 (BDII_E352-M457) (Homo sapiens, UniProt O60885); experiment: TR-FRET bromodomain binding assay, BRD4 second bromodomain
T1 construct: made in house
Description: (§1) A time-resolved fluorescence resonance energy transfer (TR-FRET) assay was used to determine the affinities of compounds of the Examples listed in Table 1 for each bromodomain of BRD4. His-tagged first (BD1: amino acids K57-E168) and second (BD2: amino acids E352-E168) bromodomains of BRD4 were expressed and purified. An Alexa647-labeled BET-inhibitor was used as the fluorescent probe in the assay.
(§2) Compound dilution series were prepared in DMSO via an approximately 3-fold serial dilution from one of the following: • Assay method A: 2.5 mM-800 nM • Assay method B: 2.5 mM-797 nM • Assay method C: 1250 μM-21 nM • Assay method D: 500 μM-8.5 nM • Assay method E: 0.47 mM to 7.8 nM • Assay method F: 250 μM-4.2 nM • Assay method G: 0.047 mM to 0.78 nM or 5-fold serial dilution from Assay Method A or Assay Method B.
(§3) For Assay methods A, C, D, and F: Compounds were then diluted 6:100 in assay buffer (20 mM Sodium Phosphate, pH 6.0, 50 mM NaCl, 1 mM Ethylenediaminetetraacetic acid, 0.01% Triton X-100, 1 mM DL-Dithiothreitol) to yield 3× working solutions. Six microliters (μL) of the working solution was then transferred to white, low-volume assay plates (Costar #3673). A 1.5× assay mixture containing His-tagged bromodomain, Europium-conjugated anti-His antibody (Invitrogen PV5596) and the Alexa-647-conjugated probe molecule was also prepared. Twelve μL of this solution were added to the assay plate to reach a final volume of 18 μL.
(§4) For Assay methods B, E, and G: Compound dilutions were added directly into white, low-volume assay plates (Perkin Elmer Proxiplate 384 Plus#6008280) using a Labcyte Echo in conjunction with Labcyte Access and Thermo Multidrop CombinL robotics. Compounds were then suspended in eight microliters (μL) of assay buffer (20 mM Sodium Phosphate, pH 6.0, 50 mM NaCl, 1 mM Ethylenediaminetetraacetic acid disodium salt dihydrate, 0.01% Triton X-100, 1 mM DL-Dithiothreitol) containing His-tagged bromodomain, Europium-conjugated anti-His antibody (Invitrogen PV5596) and Alexa-647-conjugated probe.
(§5) The final concentration of 1× assay mixture for assay methods A, B, C, D, E, F, and G contains 2% DMSO, 8 nM His-tagged bromodomain, 1 nM Europium-conjugated anti-His-tag antibody and 100 nM or 30 nM probe (for BDI or BDII, respectively) and compound concentration in the range of: 50 μM-16 nM for method A, 49.02 μM-15.63 nM for method B, 25 μM-423 pM for method C, 10 μM-169 pM for method D, 9.19 μM-150 pM for method E, 5 μM-85 pM for method F, and 0.92 μM-15 pM for method G.
(§6) After a one-hour equilibration at room temperature, TR-FRET ratios were determined using an Envision multilabel plate reader (Ex 340, Em 495/520).
(§7) TR-FRET data were normalized to the means of 24 no-compound controls (“high”) and 8 controls containing 1 μM un-labeled probe (“low”). Percent inhibition was plotted as a function of compound concentration and the data were fit with the 4 parameter logistic equation to obtain IC50s Inhibition constants (Ki) were calculated from the IC50s, probe Kd and probe concentration. Typical Z′ values were between 0.65 and 0.75. The minimum significant ratio was determined to evaluate assay reproducibility (Eastwood et al., (2006) J Biomol Screen, 11: 253-261). The MSR was determined to be 2.03 for BDI and 1.93 for BDII, and a moving MSR (last six run MSR overtime) for both BDI and BDII was typically <3.

[1] = test system: breast cancer cell line MX-1; experiment: MX-1 cell line proliferation assay (3-day, Cell Titer Glo); assay type: cell-based; settings: Homo sapiens, MX1, MX-1 cells, 72 h, top concentration 3 μM, read-out: Cellular proliferation: EC50
Description: The impact of compounds of the Examples on cancer cell proliferation was determined using the breast cancer cell line MX-1 (ATCC) in a 3-day proliferation assay and the data are reported in Table 1. MX-1 cells were maintained in RPMI 1640 medium (Sigma) supplemented with 10% FBS at 37 C.° and an atmosphere of 5% CO2. For compound testing, MX-1 cells were plated in 96-well black bottom plates at a density of 5000 cells/well in 90 μL of culture media and incubated at 37° overnight to allow cell adhesion and spreading. Compound dilution series were prepared in DMSO via a 3-fold serial dilution from 3 mM to 0.1 μM. The DMSO dilution series were then diluted 1:100 in phosphate buffered saline, and 10 μL of the resulted solution were added to the appropriate wells of the MX-1 cell plate. The final compound concentrations in the wells were 3, 1, 0.3, 0.1, 0.03, 0.01, 0.003, 0.001, 0.0003 and 0.0001 μM.
Luminescence readings from the Cell Titer Glo assay were normalized to the DMSO treated cells and analyzed using the GraphPad Prism software with sigmoidal curve fitting to obtain EC50s. The minimum significant ratio (MSR) was determined to evaluate assay reproducibility (Eastwood et al., (2006) J Biomol Screen, 11: 253-261).

BRD4 (BDI_K57-E168) = target: T2, BRD4 (BDI_K57-E168) (Homo sapiens, UniProt O60885); experiment: TR-FRET bromodomain binding assay, BRD4 first bromodomain; settings: His-tagged BD1, 100 nM Alexa647 probe; Ki calculated from IC50; dilution protocol A-G
T2 construct: BD1: amino acids K57-E168; made in house
Description: as §1, §2, §3, §4, §5, §6, §7

Row | SMILES | pKi (BRD4 (BDII_E352-M457)) | pEC50 [1] | pKi (BRD4 (BDI_K57-E168))
1 | Cc1[nH]c(-c2ccccc2Oc2ccccc2)c2cc(C(=O)NCCN3CCCC3)[nH]c(=O)c12 [Example 25, 3-methyl-4-oxo-1-(2-phenoxyphenyl)-N-[2-(pyrrolidin-1-yl)ethyl]-4,5-dihydro-2H-pyrrolo[3,4-c]pyridine-6-carboxamide] | 7.03 | 6.79 | 8.51
2 | Cc1[nH]c(-c2ccccc2Oc2ccccc2)c2cc(-c3nc(Cc4cccnc4)no3)[nH]c(=O)c12 [Example 66, 3-methyl-1-(2-phenoxyphenyl)-6-(3-(pyridin-3-ylmethyl)-1,2,4-oxadiazol-5-yl)-2H-pyrrolo[3,4-c]pyridin-4(5H)-one] | 6.82 | 7.09 | 8.03
3 | Cc1[nH]c(-c2ccccc2Oc2ccccc2)c2cc(C(=O)NCc3ccco3)[nH]c(=O)c12 [Example 31, N-(furan-2-ylmethyl)-3-methyl-4-oxo-1-(2-phenoxyphenyl)-4,5-dihydro-2H-pyrrolo[3,4-c]pyridine-6-carboxamide] | 6.81 | 6.74 | 7.06
4 | Cc1[nH]c(-c2ccccc2Oc2ccccc2)c2cc(C(=O)N3CCOCC3)[nH]c(=O)c12 [Example 15, 3-methyl-6-(morpholine-4-carbonyl)-1-(2-phenoxyphenyl)-2H-pyrrolo[3,4-c]pyridin-4(5H)-one] | 6.51 | 5.95 | 6.98
5 | Cc1[nH]c(-c2cc(S(C)(=O)=O)ccc2OCC2CC2)c2c1C(=O)NCC2 [Example 96, 1-[2-(cyclopropylmethoxy)-5-(methylsulfonyl)phenyl]-3-methyl-2,5,6,7-tetrahydro-4H-pyrrolo[3,4-c]pyridin-4-one] | 6.34 | 6.39 | 7.46
6 | Cc1[nH]c(-c2ccccc2Oc2ccccc2)c2cc(-c3nc(-c4ccncc4)no3)[nH]c(=O)c12 [Example 45, 3-methyl-1-(2-phenoxyphenyl)-6-(3-(pyridin-4-yl)-1,2,4-oxadiazol-5-yl)-2H-pyrrolo[3,4-c]pyridin-4(5H)-one] | – | 6.74 | 7.98

The next molecules have a higher pEC50 [1] than those just listed; values first:

Row | pKi (BRD4 (BDII_E352-M457)) | pEC50 [1] | pKi (BRD4 (BDI_K57-E168)) | SMILES
7 | 7.73 | 7.11 | 8.73 | Cc1[nH]c(-c2cc(N)ccc2Oc2ccccc2)c2cn[nH]c(=O)c12 [Example 74, 5-(5-amino-2-phenoxyphenyl)-7-methyl-2,6-dihydro-1H-pyrrolo[3,4-d]pyridazin-1-one]
8 | 7.55 | 7.15 | 8.12 | Cc1[nH]c(-c2ccccc2Oc2ccccc2)c2cc(-c3nc(-c4cnccn4)no3)[nH]c(=O)c12 [Example 65, 3-methyl-1-(2-phenoxyphenyl)-6-(3-(pyrazin-2-yl)-1,2,4-oxadiazol-5-yl)-2H-pyrrolo[3,4-c]pyridin-4(5H)-one]
9 | 7.47 | 7.22 | 8.48 | Cc1[nH]c(-c2cc(N)ccc2Oc2ccc(F)cc2F)c2cn[nH]c(=O)c12 [Example 78, 5-[5-amino-2-(2,4-difluorophenoxy)phenyl]-7-methyl-2,6-dihydro-1H-pyrrolo[3,4-d]pyridazin-1-one]
10 | 8.06 | 7.24 | 8.84 | CCOC(=O)c1cc2c(-c3cc(NS(=O)(=O)CC)ccc3Oc3ccc(F)cc3F)[nH]c(C)c2c(=O)[nH]1 [Example 10, ethyl 1-(2-(2,4-difluorophenoxy)-5-(ethylsulfonamido)phenyl)-3-methyl-4-oxo-4,5-dihydro-2H-pyrrolo[3,4-c]pyridine-6-carboxylate]
11 | 7.94 | 7.34 | 8.07 | Cc1[nH]c(-c2cc(N)ccc2Oc2ccc(F)cc2F)c2c1C(=O)NC(C)C2 (centres unmarked) [Example 101, 1-[5-amino-2-(2,4-difluorophenoxy)phenyl]-3,6-dimethyl-2,5,6,7-tetrahydro-4H-pyrrolo[3,4-c]pyridin-4-one]
12 | 8.15 | 7.53 | 8.64 | Cc1[nH]c(-c2ccccc2Oc2ccccc2)c2cc(-c3nc(Cn4cncn4)no3)[nH]c(=O)c12 [Example 64, 6-(3-((1H-1,2,4-triazol-1-yl)methyl)-1,2,4-oxadiazol-5-yl)-3-methyl-1-(2-phenoxyphenyl)-2H-pyrrolo[3,4-c]pyridin-4(5H)-one]

From patent US9050346B2, “Bromodomain inhibitors” (AbbVie Inc., priority 2013, dated 2015)
